Where two headings read alike, the source gives them in different places.
Tests used:
NA (H1N1,09) = NA (H1N1,09) (Influenza A virus, UniProt C3W5S3); experiment: biochemical; conditions: for IC50: in vitro NA inhibition assay (n = 3)
NA (H5N1) [1] = biological target: T1, NA (H5N1) (Influenza A virus, UniProt K0C216); experiment: biochemical; conditions: for Inhibition rate (%) NA (H5N1): 200 µM; for inhibition at 200 µM: read-out: Inhibition rate (%) NA (H5N1)
NA (H7N9) = format: biochemical; conditions: 200 µM
NA (H5N1) [2] = biological target: T1, NA (H5N1); format: biochemical, Influenza A virus A/Hubei/1/2011(H5N1)
Influenza B (B/Lee/40) = experiment: microbe, parasite or virus in culture; format: cell-based
[3] = tested on: MDCK cells (Madin-Darby Canine Kidney cells)
[4] = tested on: H5N2 (A/Duck/Pennsylvania/84); experiment: microbe, parasite or virus in culture; format: cell-based; conditions: unidentified influenza virus, H5N2, MDCK
in vitro [5] = conditions: human
in vitro [6] = conditions: dog
[7] = tested on: influenza A H1N1 (A/WSN/33); conditions: cellular assay; cited from earlier work
[8] = 200 μM of each compound, n = 3, means ± standard deviation

## CC(=O)O[C@H]1C[C@H]([C@H](C)CC/C=C(\C)C(=O)O)[C@@]2(C)CC=C3C(=CC[C@H]4C(C)(C)C(=O)CC[C@]34C)[C@]12C [Compound 1, Ganoderic acid T-Q]
NA (H1N1,09); [8]
  Inhibition rate (%) NA(H1N1,09): 81.7 ± 1.7%
NA (H1N1,09)
  IC50: 5.6 ± 1.9 µM
NA (H5N1) [1]
  IC50: 1.2 ± 1 µM
  Inhibition rate (%) NA (H5N1): 94.4 ± 0.4%
NA (H7N9)
  Inhibition rate (%) NA(H7N9): 27.4 ± 1.2%
NA (H5N1) [2]
  Kiu (ESI dissociation constant): 17.39
  higher affinity to free NA than to the NA-substrate complex: 2.5 fold
  mode of inhibition: mixed inhibition mode
Influenza B (B/Lee/40); read-out: IC50
  IC50: 190 µM
MCF7 cells
  CC50: 28.2 ± 0.8 µM
[3]
  CC50: 41.1 µM

## C/C(=C\CC[C@@H](C)[C@H]1C[C@H](O)[C@@]2(C)C3=CC[C@H]4C(C)(C)C(=O)CC[C@]4(C)C3=CC[C@]12C)C(=O)O [Compound 2, Ganoderic acid TR]
NA (H5N1) [1]
  inhibition at 200 µM: 96.5 ± 0.3%
NA (H7N9)
  Inhibition rate (%) NA(H7N9): 24.0 ± 1.8%
[4]
  IC50: 324 µM
Influenza B (B/Lee/40); Influenza B virus, MDCK
  IC50: 166 µM
In vitro [5]
  CC50: 91.6 ± 3.4 µM
In vitro [6]
  CC50: 299 µM

## CC(=O)O[C@H]1C[C@H]([C@H](C)CC/C=C(\C)C(=O)O)[C@@]2(C)CC=C3C(=CC[C@H]4C(C)(C)[C@@H](O)CC[C@]34C)[C@]12C [Compound 3, Ganoderic acid T-N]
NA (H1N1,09); [8]
  Inhibition rate (%) NA(H1N1,09): 72.0 ± 5.5%
NA (H1N1,09)
  IC50: 42 ± 13.5 µM
NA (H5N1) [1]
  IC50: 2.7 ± 0.4 µM
  Inhibition rate (%) NA (H5N1): 91.1 ± 0.8%
NA (H7N9)
  Inhibition rate (%) NA(H7N9): 25.6 ± 1.6%
MCF7 cells
  CC50: 24.4 ± 2.4 µM

## C/C(=C/CC[C@@H](C)[C@H]1CC[C@@]2(C)C3=CC[C@H]4C(C)(C)C(=O)CC[C@]4(C)C3=CC[C@]12C)C(=O)O [Compound 4, Ganoderic acid Sz]
NA (H1N1,09); [8]
  Inhibition rate (%) NA(H1N1,09): 60.1 ± 4.8%
NA (H1N1,09)
  IC50: 101 ± 35.9 µM
NA (H5N1) [1]
  Inhibition rate (%) NA (H5N1): 0.0%
NA (H7N9)
  Inhibition rate (%) NA(H7N9): 17.8 ± 4.0%
MCF7 cells
  CC50: 50.6 ± 0.1 µM

## C/C(=C\C(=O)CC(C)C(=O)O)C1CC(O)C2(C)C3=C(C(=O)CC12C)C1(C)CCC(O)C(C)(C)C1CC3O (centres unmarked) [Compound 16, Ganoderenic acid C]
NA (H1N1,09); [8]
  Inhibition rate (%) NA(H1N1,09): 27.9 ± 0.3%
NA (H5N1) [1]
  Inhibition rate (%) NA (H5N1): 30.6 ± 4.5%
NA (H7N9)
  Inhibition rate (%) NA(H7N9): 27.2 ± 0.5%
MCF7 cells
  CC50: > 200 µM

## C/C(=C\[C@@H](O)C[C@@H](C)[C@H]1CC(=O)[C@@]2(C)C3=C(C(=O)C[C@]12C)[C@@]1(C)CC[C@H](O)C(C)(C)[C@@H]1CC3=O)C(=O)O [Compound 22, Ganoderic acid Zeta]
NA (H1N1,09); [8]
  Inhibition rate (%) NA(H1N1,09): 35.9 ± 5.3%
NA (H5N1) [1]
  Inhibition rate (%) NA (H5N1): 0.0%
NA (H7N9)
  Inhibition rate (%) NA(H7N9): 17.7 ± 2.4%
MCF7 cells
  CC50: > 200 µM

## C/C(C=O)=C\CC[C@@H](C)[C@H]1CC[C@@]2(C)C3=CC[C@H]4C(C)(C)[C@@H](O)CC[C@]4(C)C3=CC[C@]12C [Compound 30, Lucialdehyde A]
NA (H1N1,09); [8]
  Inhibition rate (%) NA(H1N1,09): 57.6 ± 1.7%
NA (H5N1) [1]
  IC50: 164 ± 18 µM
  Inhibition rate (%) NA (H5N1): 67.1 ± 5.7%
NA (H7N9)
  Inhibition rate (%) NA(H7N9): 24.5 ± 1.6%
MCF7 cells
  CC50: 34.7 ± 5.5 µM

## C/C(C=O)=C\CC[C@@H](C)[C@H]1CC[C@@]2(C)C3=C(CC[C@]12C)[C@@]1(C)CCC(=O)C(C)(C)[C@@H]1CC3=O [Compound 31, Lucialdehyde B]
NA (H1N1,09); 200 μM of each compound, n = 3, means ± standard deviation, read-out: Inhibition rate (%) NA(H1N1,09)
  inhibition at 200 µM: 51.4 ± 2.5%
NA (H5N1) [1]
  inhibition at 200 µM: 86.7 ± 0.8%
NA (H7N9)
  Inhibition rate (%) NA(H7N9): 30.4 ± 3.5%
In vitro [5]
  CC50: 7.1 ± 0.3 µM

## CC(CC(=O)C[C@@](C)(O)C1=C[C@H](O)[C@]2(C)[C@]1(C)C(=O)C=C1[C@@]3(C)CCC(=O)C(C)(C)[C@@H]3C[C@H]3O[C@@]132)C(=O)O (some centres unmarked) [applanoxidic acid G]
[7]
  IC50: 190 µM

## CC(=CCC[C@@H](C)[C@H]1CC[C@@]2(C)C3=CC[C@H]4C(C)(C)[C@@H](O)CC[C@]4(C)C3=CC[C@]12C)CO [ganodermadiol]
[7]
  IC50: > 220 µM

## C/C(=C\CC[C@@H](C)[C@H]1CC[C@@]2(C)C3=C(CC[C@]12C)[C@@]1(C)CC[C@H](O)C(C)(C)[C@@H]1CC3=O)CO [lucidadiol]
[7]
  IC50: 220 µM

## Ganoderenic acid D [Compound 17]
NA (H1N1,09); [8]
  Inhibition rate (%) NA(H1N1,09): 50.4 ± 3.0%
NA (H5N1) [1]
  IC50: 123 ± 22.5 µM
  Inhibition rate (%) NA (H5N1): 74.2 ± 2.2%
NA (H7N9)
  Inhibition rate (%) NA(H7N9): 35.9 ± 2.8%
MCF7 cells
  CC50: > 200 µM

— article PMC4549708, “Inhibition of neuraminidase by Ganoderma triterpenoids and implications for neuraminidase inhibitor design” (Scientific Reports, 2015)
